Test results as given in ChEMBL document CHEMBL1681694, “Solution-phase parallel synthesis and screening of anti-tumor activities from fenbufen and ethacrynic acid libraries” (Bioorg Med Chem Lett, 2011).
pIC50: −log10 of the molar value.

Tests used:
Type in all cases: functional, cell-based
[1] = tested on: A549; assay: Cytotoxicity against human A549 cells after 2 days by MTT assay; settings: A549, 48 h
[2] = tested on: MCF7; assay: Cytotoxicity against human MCF7 cells after 2 days by MTT assay; settings: MCF7, 48 h
[3] = Cytotoxicity against mouse TRAMP-C1 cells after 2 days by MTT assay; settings: TRAMP-C1, 48 h
[4] = Cytotoxicity against mouse C26 cells after 2 days by MTT assay; settings: C26, 48 h

Row | Structure (SMILES) | pIC50 [1] | pIC50 [2] | pIC50 [3] | pIC50 [4]
1 | C=C(CC)C(=O)c1ccc(OCC(=O)NCCCCN)c(Cl)c1Cl | 4.74 | 5.10 | – | –
2 | CCCCC(CC)C(=O)NCCCCNC(=O)CCC(=O)c1ccc(-c2ccccc2)cc1 (stereo not given) | 4.77 | 6.00 | 4.74 | 4.89
3 | Cc1ccc(C)c(OCCCC(C)(C)C(=O)NCCCCNC(=O)CCC(=O)c2ccc(-c3ccccc3)cc2)c1 | 5.05 | 5.70 | 4.40 | 5.00
4 | NCCCCNC(=O)CCC(=O)c1ccc(-c2ccccc2)cc1 [FENBUFEN BUTANAMINE] | 4.00 | 4.06 | – | –
5 | O=C(O)CCC(=O)c1ccc(-c2ccccc2)cc1 [FENBUFEN] | < 4.00 | < 4.30 | < 4.00 | < 4.00
6 | C=C(CC)C(=O)c1ccc(OCC(=O)NCCCCNC(=O)CCC(=O)c2ccc(-c3ccccc3)cc2)c(Cl)c1Cl | 4.72 | 5.30 | 4.10 | 4.46
